Laboratory results: ChEMBL document CHEMBL5120875, “Discovery of diarylheptanoids that activate α7 nAchR-JAK2-STAT3 signaling in macrophages with anti-inflammatory activity in vitro and in vivo” (Bioorg Med Chem, 2022)
Activity calls are given as the source filed them. The calls are words filed in the database; no cut-off is given here.

Tests used:
[1] = test system: RAW264.7; test: Activation of NF-kappaB signalling pathway in mouse RAW264.7 cells assessed as suppression of LPS-induced IkappaBalpha degradation pretreated with compound for 2 hrs followed by LPS-stimulation for 30 mins by Western blot analysis; assay type: cell-based; conditions: filed as activator, dose 0.2-5 µM, time 2.5 hrs, DDE = dose-dependent effect
[2] = biological target: T1, Signal transducer and activator of transcription 1 (Mus musculus) (UniProt P42225); test: Inhibition of LPS-induced STAT1 phosphorylation in mouse RAW264.7 cells pretreated with compound for 2 hrs followed by LPS-stimulation and measured after 30 mins by immunoblot analysis; assay type: cell-based; conditions: dose 0.2-5 µM, time 2.5 hrs, DDE = dose-dependent effect
T1 sequence (whole entry): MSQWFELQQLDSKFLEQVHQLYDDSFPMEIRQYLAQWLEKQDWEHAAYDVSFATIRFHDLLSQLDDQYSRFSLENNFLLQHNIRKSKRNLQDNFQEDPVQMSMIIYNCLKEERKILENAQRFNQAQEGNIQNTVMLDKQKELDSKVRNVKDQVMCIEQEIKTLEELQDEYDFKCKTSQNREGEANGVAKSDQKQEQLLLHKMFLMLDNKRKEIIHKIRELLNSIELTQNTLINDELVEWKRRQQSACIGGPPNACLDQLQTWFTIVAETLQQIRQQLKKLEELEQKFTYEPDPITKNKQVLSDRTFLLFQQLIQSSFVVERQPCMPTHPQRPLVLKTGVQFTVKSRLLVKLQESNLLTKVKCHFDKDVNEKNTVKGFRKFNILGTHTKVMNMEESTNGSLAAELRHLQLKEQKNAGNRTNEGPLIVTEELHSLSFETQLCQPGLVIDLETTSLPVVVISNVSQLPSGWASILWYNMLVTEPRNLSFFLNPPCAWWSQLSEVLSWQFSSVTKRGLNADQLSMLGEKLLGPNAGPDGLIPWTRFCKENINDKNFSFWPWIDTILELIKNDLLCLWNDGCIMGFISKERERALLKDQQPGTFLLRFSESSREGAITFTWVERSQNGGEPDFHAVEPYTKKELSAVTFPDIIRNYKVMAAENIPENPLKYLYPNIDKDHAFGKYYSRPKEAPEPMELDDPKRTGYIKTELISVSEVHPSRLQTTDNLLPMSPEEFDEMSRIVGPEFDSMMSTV

[3] = test system: RAW264.7; test: Cytotoxicity against mouse RAW264.7 cells assessed as effect on cell viability at 5 uM incubated for 24 hrs by alamar blue reagent based fluorescence assay; assay type: toxicity; conditions: raw264.7, 24 h
[4] = test system: RAW264.7; test: Antiinflammatory activity in mouse RAW264.7 cells assessed as inhibition of LPS-induced IL-6 production preincubated for 2 hrs followed by LPS-stimulation for 24 hrs by ELISA; assay type: functional, cell-based; conditions: dose 0.2-5 µM, time 26.0 hrs, DDE = dose-dependent effect
[5] = test system: RAW264.7; test: Inhibition of LPS-induced NO production in mouse RAW264.7 cells at 5 uM preincubated with compound for 2 hrs followed by LPS stimulation for 24 hrs by Griess reagent based assay relative to control; assay type: functional; conditions: time 26 hrs
[6] = test system: RAW264.7; test: Antiinflammatory activity in mouse RAW264.7 cells assessed as inhibition of LPS-induced iNOS mRNA expression preincubated for 2 hrs followed by LPS stimulation for 24 hrs by qRT-PCR analysis; assay type: functional, cell-based; conditions: dose 0.2-5 µM, time 26.0 hrs, DDE = dose-dependent effect
[7] = test system: THP-1; test: Antiinflammatory activity in LPS/IFNgamma-stimulated human THP-1 monocytes assessed as inhibition of NO production pretreated with PMA for 24 hrs and incubated alpha-bungarotoxin for 1 hr followed by compound addition for 2 hrs and further stimulated with LPS/INF-gamma for 22 hrs by Griess reagent based assay; assay type: functional, cell-based
[8] = test system: Peritoneal macrophage; test: Antiinflammatory activity in mouse peritoneal macrophages assessed as reduction in LPS-induced NO production at 0.2 to 5 uM preincubated for 2 hrs followed by LPS-stimulation for 22 hrs by Griess reagent based assay; assay type: functional, cell-based; conditions: dose 0.2-5 µM, time 24.0 hrs
[9] = test system: RAW264.7; test: Antiinflammatory activity in LPS-induced mouse RAW264.7 cells assessed as enhancement of JAK2 phosphorylation at 0.2 to 5 uM pretreated with alpha7 nAChR antagonist alpha-bungarotoxin for 1 hr followed by compound treatment for 2 hrs and further stimulated with LPS for 30 mins by Western blot analysis; assay type: functional, cell-based; conditions: dose 0.2-5 µM, time 2.5 hrs
[10] = test system: RAW264.7; test: Antiinflammatory activity in mouse RAW264.7 cells assessed as inhibition of LPS-induced iNOS protein expression preincubated for 2 hrs followed by LPS stimulation for 24 hrs by qRT-PCR analysis; assay type: functional, cell-based; conditions: time 26.0 hrs, DDE = dose-dependent effect
[11] = test system: RAW264.7; test: Activation of NF-kappaB signalling pathway in mouse RAW264.7 cells assessed as decrease in LPS-induced AKT phosphorylation at 0.2 to 5 uM pretreated with compound for 2 hrs followed by LPS-stimulation for 30 mins by Western blot analysis; assay type: cell-based; conditions: filed as activator, dose 0.2-5 µM, time 2.5 hrs
[12] = test system: RAW264.7; test: Antiinflammatory activity in LPS-induced mouse RAW264.7 cells assessed as enhancement of STAT3 phosphorylation at 0.2 to 5 uM pretreated with alpha7 nAChR antagonist alpha-bungarotoxin for 1 hr followed by compound treatment for 2 hrs and further stimulated with LPS for 30 mins by Western blot analysis; assay type: functional, cell-based; conditions: dose 0.2-5 µM, time 2.5 hrs
[13] = test system: RAW264.7; test: Antiinflammatory activity in LPS-induced mouse RAW264.7 cells assessed as enhancement of STAT3 phosphorylation pretreated with compound for 2 hrs followed by LPS-stimulation and measured after 30 mins by Western blot analysis; assay type: functional, cell-based; conditions: dose 0.2-5 µM, time 2.5 hrs, DDE = dose-dependent effect
[14] = test system: RAW264.7; test: Antiinflammatory activity in LPS-induced mouse RAW264.7 cells assessed as enhancement of JAK2 phosphorylation pretreated with compound for 2 hrs followed by LPS-stimulation and measured after 30 mins by Western blot analysis; assay type: functional, cell-based; conditions: dose 0.2-5 µM, time 2.5 hrs, DDE = dose-dependent effect
[15] = test system: RAW264.7; test: Inhibition of LPS-induced NO production in mouse RAW264.7 cells preincubated with compound for 2 hrs followed by LPS stimulation for 24 hrs by Griess reagent based assay; assay type: functional, cell-based
[16] = biological target: Neuronal acetylcholine receptor subunit alpha-7 (Mus musculus) (UniProt P49582); test: Binding affinity to alpha7 nAChR in mouse RAW264.7 cells assessed as increase in thermal stability at 200 uM incubated for 30 min by CETSA; assay type: cell-based; conditions: filed as agonist
Neuronal acetylcholine receptor subunit alpha-7 (Mus musculus), sequence (P49582 whole entry): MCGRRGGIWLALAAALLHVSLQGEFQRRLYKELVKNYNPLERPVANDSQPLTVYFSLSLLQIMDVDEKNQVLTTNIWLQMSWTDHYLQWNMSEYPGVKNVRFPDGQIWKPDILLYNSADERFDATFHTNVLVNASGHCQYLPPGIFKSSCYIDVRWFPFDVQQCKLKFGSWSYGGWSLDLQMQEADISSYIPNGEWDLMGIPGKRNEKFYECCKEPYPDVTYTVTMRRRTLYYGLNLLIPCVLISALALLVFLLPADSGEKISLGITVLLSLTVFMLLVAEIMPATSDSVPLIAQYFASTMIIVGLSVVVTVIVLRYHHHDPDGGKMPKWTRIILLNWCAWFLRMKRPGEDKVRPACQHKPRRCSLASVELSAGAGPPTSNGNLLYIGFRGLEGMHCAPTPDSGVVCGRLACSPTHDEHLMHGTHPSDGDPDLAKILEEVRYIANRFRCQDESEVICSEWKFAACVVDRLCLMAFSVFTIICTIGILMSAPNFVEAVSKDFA

[17] = test system: RAW264.7; test: Antiinflammatory activity in mouse RAW264.7 cells assessed as inhibition of LPS-induced IL-1beta production preincubated for 2 hrs followed by LPS-stimulation for 24 hrs by ELISA; assay type: functional, cell-based; conditions: dose 0.2-5 µM, time 26.0 hrs, DDE = dose-dependent effect
[18] = test system: THP-1; test: Antiinflammatory activity in human THP-1 monocytes assessed as reduction in LPS/Interferon-gamma NO production at 0.2 to 5 uM pretreated with PMA for 24 hrs followed by compound addition 2 hrs and stimulated with LPS/Interferon-gamma for 22 hrs by Griess reagent based assay; assay type: functional, cell-based; conditions: dose 0.2-5 µM
[19] = test system: RAW264.7; test: Antiinflammatory activity in mouse RAW264.7 cells assessed as decrease in LPS-induced IL-6 mRNA expression at 0.2 to 5 uM preincubated for 2 hrs followed by LPS-stimulation for 24 hrs by qRT-PCR analysis; assay type: functional, cell-based; conditions: dose 0.2-5 µM, time 26.0 hrs
[20] = test system: RAW264.7; test: Antiinflammatory activity in mouse RAW264.7 cells assessed as decrease in LPS-induced IL-1beta mRNA expression at 0.2 to 5 uM preincubated for 2 hrs followed by LPS-stimulation for 24 hrs by qRT-PCR analysis; assay type: functional, cell-based; conditions: dose 0.2-5 µM, time 26.0 hrs
[21] = test system: RAW264.7; test: Activation of NF-kappaB signalling pathway in mouse RAW264.7 cells assessed as suppression of LPS-induced IkappaBalpha phosphorylation pretreated with compound for 2 hrs followed by LPS-stimulation for 30 mins by Western blot analysis; assay type: cell-based; conditions: filed as activator, dose 0.2-5 µM, time 2.5 hrs
[22] = test system: Mus musculus; test: Antiinflammatory activity in LPS-induced ICR sepsis mouse model assessed as attenuation of LPS-induced inflammatory cell infiltration at 5 to 20 mg/kg, ip pretreated with compound for 5 days followed by LPS stimulation and measured 2 hrs post last dose by hematoxylin and eosin staining based microscopic analysis; assay type: functional, organism-based; conditions: dose 5-20 mg/kg, time 5.0 day
[23] = test system: Mus musculus; test: Antiinflammatory activity in LPS-induced ICR sepsis mouse model assessed as suppression of LPS-induced serum interleukin-1beta level at 5 to 20 mg/kg, ip pretreated with compound for 5 days followed by LPS stimulation and measured 2 hrs post last dose by ELISA analysis; assay type: functional, organism-based; conditions: dose 5-20 mg/kg, time 5.0 day
[24] = test system: RAW264.7; test: Antiinflammatory activity in LPS-stimulated mouse RAW264.7 cells assessed as inhibition of IkappaBalpha degradation at 0.2 to 5 uM pretreated with alpha7 nAChR antagonist, alpha-bungarotoxin for 1 hr followed by compound treatment for 2 hrs and further stimulated with LPS for 30 mins by Western blot analysis; assay type: functional, cell-based; conditions: dose 0.2-5 µM, time 2.5 hrs
[25] = test system: Mus musculus; test: Antiinflammatory activity in LPS-induced ICR sepsis mouse model assessed as suppression of LPS-induced serum interleukin-6 level at 5 to 20 mg/kg, ip pretreated with compound for 5 days followed by LPS stimulation and measured 2 hrs post last dose by ELISA analysis; assay type: functional, organism-based; conditions: dose 5-20 mg/kg, time 5.0 day
[26] = test system: Mus musculus; test: Antiinflammatory activity in LPS-induced ICR sepsis mouse model assessed as attenuation of LPS-induced lung damage at 5 to 20 mg/kg, ip pretreated with compound for 5 days followed by LPS stimulation and measured 2 hrs post last dose by hematoxylin and eosin staining based microscopic analysis; assay type: functional, organism-based; conditions: dose 5-20 mg/kg, time 5.0 day
[27] = test system: RAW264.7; test: Antiinflammatory activity in LPS-stimulated mouse RAW264.7 cells assessed as inhibition of NO production at 0.2 to 5 uM pretreated with alpha7 nAChR antagonist alpha-bungarotoxin for 1 hr followed by compound treatment for 2 hrs and further stimulated with LPS for […] reagent based assay; assay type: functional, cell-based; conditions: dose 0.2-5 µM
[28] = test system: Mus musculus; test: Antiinflammatory activity in LPS-induced ICR sepsis mouse model assessed as high survival rate at 5 to 20 mg/kg, ip pretreated with compound for 5 days followed by LPS stimulation and measured 2 hrs post last dose; assay type: functional, organism-based; conditions: dose 5-20 mg/kg, time 5.0 day
[29] = test system: RAW264.7; test: Antiinflammatory activity in mouse RAW264.7 cells assessed as inhibition of LPS-induced IL-1beta production at 10 uM preincubated for 2 hrs followed by LPS-stimulation for 24 hrs by ELISA; assay type: functional, cell-based; conditions: time 26.0 hrs
[30] = test system: RAW264.7; test: Antiinflammatory activity in mouse RAW264.7 cells assessed as inhibition of LPS-induced IL-6 production at 10 uM preincubated for 2 hrs followed by LPS-stimulation for 24 hrs by ELISA; assay type: functional, cell-based; conditions: time 26.0 hrs
[31] = test system: Mus musculus; test: Antiinflammatory activity in LPS-induced ICR sepsis mouse model assessed as attenuation of LPS-induced lung damage at 5 mg/kg, ip pretreated with compound for 5 days followed by LPS stimulation and measured 2 hrs post last dose by hematoxylin and eosin staining based microscopic analysis; assay type: functional, organism-based; conditions: time 5.0 day
[32] = test system: Mus musculus; test: Antiinflammatory activity in LPS-induced ICR sepsis mouse model assessed as attenuation of LPS-induced inflammatory cell infiltration at 5 mg/kg, ip pretreated with compound for 5 days followed by LPS stimulation and measured 2 hrs post last dose by hematoxylin and eosin staining based microscopic analysis; assay type: functional, organism-based; conditions: time 5.0 day

Row | SMILES | Activity [1] | inhibition [2] | Activity [3] | Activity [4] | inhibition at 5 µM [5] [%] | Activity [6] | Activity [9] | Activity [10] | Activity [11] | Activity [12] | Activity [13] | Activity [14] | IC50 [15] [nM] | Activity [17] | Activity [19] | Activity [20] | Activity ([21]; DDE = dose-dependent effect) | also measured
1 | COc1ccc(/C=C/C=C/C(=O)/C=C/c2ccc(OC)c(O)c2)c(OC)c1 | Dde | Dde | Non-Toxic | Dde | 106 | Dde | Active | Dde | Active | Active | Dde | Dde | 550 | Dde | Active | Active | Dde | Activity [7]: Active; Activity [8]: Active; Activity [16]: Active; Activity [18]: Active
2 | CC(=O)Oc1ccc(CC[C@H](CCCCc2ccccc2)OC(C)=O)cc1OC(C)=O | Dde | Dde | Non-Toxic | Dde | 93.2 | Dde | Active | Dde | Active | Active | Dde | Dde | 320 | Dde | Active | Active | Dde | Activity [22]: Active; Activity [23]: Active; Activity [24]: Active; Activity [25]: Active; Activity [26]: Active; Activity [27]: Active; Activity [28]: Active
3 | Cc1ccc(S(=O)(=O)/C=C/C#N)cc1 | – | – | – | – | – | – | – | – | – | – | – | – | – | – | – | – | – | Activity [29]: Active; Activity [30]: Active; Activity [21]: Active
4 | C[C@@H]1C[C@H]2[C@@H]3CCC4=CC(=O)C=C[C@]4(C)[C@@]3(F)[C@@H](O)C[C@]2(C)[C@@]1(O)C(=O)CO | – | – | – | – | – | – | – | – | – | – | – | – | – | – | – | – | – | Activity [31]: Active; Activity [32]: Active
